Data: patent US20220168315A1, “COMPOUNDS AND THERAPEUTIC USES THEREOF” (priority 2019, published 2022)

Biological target: T1, PIKfyve (Homo sapiens, UniProt Q9Y2I7)
T1 construct: T7 phage fusion (kinase-tagged phage) or DNA tag for qPCR; made in house; host or cells: E. coli BL21-derived host (T7 phage) for most kinases, HEK-293 for the rest
Test: Kinase binding assay (kinase-tagged T7 phage, affinity beads, qPCR readout), Kd determination
Conditions: 11-point 3-fold dilution series
Protocol: Kinase assays. For most assays, kinase-tagged T7 phage strains were prepared in an E. coli host derived from the BL21 strain. E. coli were grown to log-phase and infected with T7 phage and incubated with shaking at 32° C. until lysis. The lysates were centrifuged and filtered to remove cell debris. The remaining kinases were produced in HEK-293 cells and subsequently tagged with DNA for qPCR detection. Streptavidin-coated magnetic beads were treated with biotinylated small molecule ligands for 30 minutes at room temperature to generate affinity resins for kinase assays. The liganded beads were blocked with excess biotin and washed with blocking buffer (SeaBlock (Pierce), 1% BSA, 0.05% Tween 20, 1 mM DTT) to remove unbound ligand and to reduce non-specific binding. Binding reactions were assembled by combining kinases, liganded affinity beads, and test compounds in 1× binding buffer (20% SeaBlock, 0.17×PBS, 0.05% Tween 20, 6 mM DTT). Test compounds were prepared as 111× stocks in 100% DMSO. Kds were determined using an 11-point 3-fold compound dilution series with three DMSO control points. All compounds for Kd measurements are distributed by acoustic transfer (non-contact dispensing) in 100% DMSO. The compounds were then diluted directly into the assays such that the final concentration of DMSO was 0.9%. All reactions performed in polypropylene 384-well plate. Each was a final volume of 0.02 ml. The assay plates were incubated at room temperature with shaking for 1 hour and the affinity beads were washed with wash buffer (1×PBS, 0.05% Tween 20). The beads were then re-suspended in elution buffer (1×PBS, 0.05% Tween 20, 0.5 μM non-biotinylated affinity ligand) and incubated at room temperature with shaking for 30 minutes. The kinase concentration in the eluates was measured by qPCR.
An 11-point 3-fold serial dilution of each test compound was prepared in 100% DMSO at 100× final test concentration and subsequently diluted to 1× in the assay (final DMSO concentration=1%). Most Kds were determined using a compound top concentration=30,000 nM. If the initial Kd determined was <0.5 nM (the lowest concentration tested), the measurement was repeated with a serial dilution starting at a lower top concentration.

T1 sequence (Q9Y2I7 whole entry, the tested form may be a part): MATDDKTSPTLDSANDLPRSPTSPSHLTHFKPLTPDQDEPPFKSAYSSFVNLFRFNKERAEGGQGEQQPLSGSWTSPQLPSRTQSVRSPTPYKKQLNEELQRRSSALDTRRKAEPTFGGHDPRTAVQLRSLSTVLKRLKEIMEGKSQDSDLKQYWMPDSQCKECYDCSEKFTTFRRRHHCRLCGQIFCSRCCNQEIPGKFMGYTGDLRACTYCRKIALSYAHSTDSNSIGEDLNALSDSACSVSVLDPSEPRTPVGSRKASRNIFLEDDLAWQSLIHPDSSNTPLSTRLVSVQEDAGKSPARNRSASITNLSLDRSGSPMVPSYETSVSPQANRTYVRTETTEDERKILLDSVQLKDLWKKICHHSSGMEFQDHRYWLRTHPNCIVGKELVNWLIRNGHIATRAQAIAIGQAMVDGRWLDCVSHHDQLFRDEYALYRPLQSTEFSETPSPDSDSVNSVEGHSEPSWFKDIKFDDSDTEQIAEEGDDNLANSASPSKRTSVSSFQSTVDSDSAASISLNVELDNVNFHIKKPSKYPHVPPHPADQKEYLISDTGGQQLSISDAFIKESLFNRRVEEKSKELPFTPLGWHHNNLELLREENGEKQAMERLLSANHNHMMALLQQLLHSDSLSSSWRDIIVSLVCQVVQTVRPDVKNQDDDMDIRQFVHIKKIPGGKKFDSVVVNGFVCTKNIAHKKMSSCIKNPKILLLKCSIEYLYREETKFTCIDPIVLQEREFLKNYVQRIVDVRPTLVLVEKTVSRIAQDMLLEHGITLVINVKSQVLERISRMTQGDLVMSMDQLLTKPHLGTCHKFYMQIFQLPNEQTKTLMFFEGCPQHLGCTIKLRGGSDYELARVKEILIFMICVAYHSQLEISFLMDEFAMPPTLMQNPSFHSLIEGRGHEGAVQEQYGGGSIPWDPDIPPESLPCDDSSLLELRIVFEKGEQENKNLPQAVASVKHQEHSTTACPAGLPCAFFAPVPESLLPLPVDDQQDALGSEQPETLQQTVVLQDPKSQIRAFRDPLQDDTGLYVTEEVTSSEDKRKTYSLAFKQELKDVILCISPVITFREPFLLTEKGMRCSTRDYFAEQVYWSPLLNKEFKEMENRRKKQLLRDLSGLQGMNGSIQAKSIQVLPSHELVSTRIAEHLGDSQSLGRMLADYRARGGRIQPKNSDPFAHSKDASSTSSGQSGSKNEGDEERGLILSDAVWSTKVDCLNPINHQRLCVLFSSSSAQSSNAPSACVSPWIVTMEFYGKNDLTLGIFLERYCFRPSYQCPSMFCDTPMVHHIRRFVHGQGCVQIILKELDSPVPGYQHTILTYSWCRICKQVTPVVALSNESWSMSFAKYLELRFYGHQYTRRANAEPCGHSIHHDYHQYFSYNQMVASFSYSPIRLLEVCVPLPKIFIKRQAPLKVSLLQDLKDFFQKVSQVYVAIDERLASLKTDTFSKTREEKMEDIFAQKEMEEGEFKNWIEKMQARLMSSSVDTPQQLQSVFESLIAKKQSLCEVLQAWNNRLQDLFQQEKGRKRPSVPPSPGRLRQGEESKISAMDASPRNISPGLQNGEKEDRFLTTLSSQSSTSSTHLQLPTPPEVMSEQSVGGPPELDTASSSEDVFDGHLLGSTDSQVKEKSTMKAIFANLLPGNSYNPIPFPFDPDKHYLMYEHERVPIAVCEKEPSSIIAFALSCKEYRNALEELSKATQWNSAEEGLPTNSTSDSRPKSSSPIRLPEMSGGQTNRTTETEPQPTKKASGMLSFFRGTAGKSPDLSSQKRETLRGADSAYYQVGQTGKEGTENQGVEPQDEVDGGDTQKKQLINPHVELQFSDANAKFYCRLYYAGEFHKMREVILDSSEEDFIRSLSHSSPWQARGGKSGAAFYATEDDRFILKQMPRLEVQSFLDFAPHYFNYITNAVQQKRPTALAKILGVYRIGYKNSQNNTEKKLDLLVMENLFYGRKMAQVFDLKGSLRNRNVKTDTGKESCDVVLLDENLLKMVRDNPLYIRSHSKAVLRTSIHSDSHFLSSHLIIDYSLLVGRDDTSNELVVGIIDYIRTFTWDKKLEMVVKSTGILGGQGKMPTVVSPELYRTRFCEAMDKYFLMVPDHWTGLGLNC

Row | SMILES | Kd
1 | Cc1cccc(/C=N/Nc2cc(N3CCOCC3)n3nc(C(=O)NC4CC(F)(F)C4)cc3n2)c1 [Example 42, N-(3,3-difluorocyclobutyl)-7-morpholino-5-[(2E)-2-(m-tolylmethylene)hydrazino]pyrazolo[1,5-a]pyrimidine-2-carboxamide] | 1 to 5 nM
2 | Cc1cccc(/C=N/Nc2nc3c(c(N4CCOCC4)n2)CN(S(=O)(=O)c2cccc(C(=O)O)c2)C3)c1 [Example 16, 3-[[4-morpholino-2-[(2E)-2-(m-tolylmethylene)hydrazino]-5,7-dihydropyrrolo[3,4-d]pyrimidin-6-yl]sulfonyl]benzoic acid] | 1 to 5 nM
3 | O=C(Nc1cccnc1)N1Cc2nc(N/N=C/c3cccc(O)c3)nc(N3CCOCC3)c2C1 [Example 6, 2-[(2E)-2-[(3-hydroxyphenyl)methylene]hydrazino]-4-morpholino-N-(3-pyridyl)-5,7-dihydropyrrolo[3,4-d]pyrimidine-6-carboxamide] | 60 to 100 nM
4 | COc1cccc(-c2cc(O)n(-c3nc(N4CCOCC4)c4sc(-c5ccncc5)cc4n3)n2)c1 [Example 34, 5-(3-methoxyphenyl)-2-[4-morpholino-6-(4-pyridyl)thieno[3,2-d]pyrimidin-2-yl]pyrazol-3-ol] | 5 to 10 nM
5 | Cc1cccc(/C=N/Nc2nc3c(c(N4CCOCC4)n2)CN(Cc2cccnc2)C3)c1 [Example 10, 4-morpholino-N-[(E)-m-tolylmethyleneamino]-6-(3-pyridylmethyl)-5,7-dihydropyrrolo[3,4-d]pyrimidin-2-amine] | 1 to 5 nM
6 | Cc1cccc(/C=N/Nc2cc(N3CCOCC3)n3nc(C(=O)NC4COC4)cc3n2)c1 [Example 41, 7-morpholino-5-[(2E)-2-(m-tolylmethylene)hydrazino]-N-(oxetan-3-yl)pyrazolo[1,5-a]pyrimidine-2-carboxamide] | ≤ 1 nM
7 | Cc1cccc(/C=N/Nc2nc3c(c(N4CCOCC4)n2)CN(c2ccncn2)C3)c1 [Example 24, 4-morpholino-N-[(E)-m-tolylmethyleneamino]-6-pyrimidin-4-yl-5,7-dihydropyrrolo[3,4-d]pyrimidin-2-amine] | 1 to 5 nM
8 | Cc1cccc(/C=N/Nc2nc3c(c(N4CCOC[C@H]4C)n2)CN(c2ncccn2)C3)c1 [Example 26, 4-[(3R)-3-methylmorpholin-4-yl]-N-[(E)-m-tolylmethyleneamino]-6-pyrimidin-2-yl-5,7-dihydropyrrolo[3,4-d]pyrimidin-2-amine] | 5 to 10 nM
9 | Cc1cccc(-c2cc(O)n(-c3nc(N4CCOCC4)c4sc(-c5ccncc5)cc4n3)n2)c1 [Example 33, 2-[4-morpholino-6-(4-pyridyl)thieno[3,2-d]pyrimidin-2-yl]-5-(m-tolyl)pyrazol-3-ol methane sulfonate] | ≤ 1 nM
10 | Cc1cccc(-c2cc(O)n(-c3nc4c(c(N5CCOCC5)n3)CN(S(=O)(=O)c3c(C)noc3C)C4)n2)c1 [Example 37, 2-[6-(3,5-dimethylisoxazol-4-yl)sulfonyl-4-morpholino-5,7-dihydropyrrolo[3,4-d]pyrimidin-2-yl]-5-(m-tolyl)pyrazol-3-ol] | 100 to 2000 nM
11 | Cc1cccc(/C=N/Nc2nc3c(c(N4CCOCC4)n2)CN(S(=O)(=O)c2cccnc2)C3)c1 [Example 19, 4-morpholino-N-[(E)-m-tolylmethyleneamino]-6-(3-pyridylsulfonyl)-5,7-dihydropyrrolo[3,4-d]pyrimidin-2-amine] | 1 to 5 nM
12 | Cc1cccc(/C=N/Nc2nc3c(c(N4CCOCC4)n2)CN(S(=O)(=O)c2c(C)noc2C)C3)c1 [Example 22, 6-(3,5-dimethylisoxazol-4-yl)sulfonyl-4-morpholino-N-[(E)-m-tolylmethyleneamino]-5,7-dihydropyrrolo[3,4-d]pyrimidin-2-amine] | 1 to 5 nM
13 | Cc1cccc(/C=N/Nc2nc3c(c(N4CCOCC4)n2)CN(C(=O)NC2CCC2)C3)c1 [Example 5, N-cyclobutyl-4-morpholino-2-[(2E)-2-(m-tolylmethylene)hydrazino]-5,7-dihydropyrrolo[3,4-d]pyrimidine-6-carboxamide] | 1 to 5 nM
14 | Cc1cccc(/C=N/Nc2nc3c(c(N4CCOCC4)n2)CN(C(=O)NC2COC2)C3)c1 [Example 27, 4-morpholino-2-[(2E)-2-(m-tolylmethylene)hydrazino]-N-(oxetan-3-yl)-5,7-dihydropyrrolo[3,4-d]pyrimidine-6-carboxamide] | 1 to 5 nM
15 | Cc1cccc(/C=N/Nc2nc3c(c(N4CCOC[C@@H]4C)n2)CN(c2ncccn2)C3)c1 [Example 25, 4-[(3S)-3-methylmorpholin-4-yl]-N-[(E)-m-tolylmethyleneamino]-6-pyrimidin-2-yl-5,7-dihydropyrrolo[3,4-d]pyrimidin-2-amine] | 1 to 5 nM
16 | Cc1cccc(/C=N/Nc2nc3c(c(N4CCOCC4)n2)CN(Cc2ccccn2)C3)c1 [Example 11, 4-morpholino-N-[(E)-m-tolylmethyleneamino]-6-(2-pyridylmethyl)-5,7-dihydropyrrolo[3,4-d]pyrimidin-2-amine] | 10 to 60 nM
17 | Cc1cccc(/C=N/Nc2nc3c(c(N4CCOCC4)n2)CN(C(=O)Nc2ccc(F)cc2)C3)c1 [Example 2, N-(4-Fluorophenyl)-4-morpholino-2-[(2E)-2-(m-tolylmethylene)hydrazino]-5,7-dihydropyrrolo[3,4-d]pyrimidine-6-carboxamide] | 5 to 10 nM
18 | CCNC(=O)N1Cc2nc(N/N=C/c3cccc(C)c3)nc(N3CCOCC3)c2C1 [Example 1, N-ethyl-4-morpholino-2-[(2E)-2-(m-tolylmethylene)hydrazino]-5,7-dihydropyrrolo[3,4-d]pyrimidine-6-carboxamide] | 5 to 10 nM
19 | Cc1cccc(/C=N/Nc2nc3c(c(N4CCOCC4)n2)CN(C(=O)NC2CNC2)C3)c1 [Example 28, N-(azetidin-3-yl)-4-morpholino-2-[(2E)-2-(m-tolylmethylene)hydrazino]-5,7-dihydropyrrolo[3,4-d]pyrimidine-6-carboxamide] | 5 to 10 nM
20 | Cc1cccc(/C=N/Nc2nc3c(c(N4CCOCC4)n2)CCN(S(=O)(=O)c2c(C)n[nH]c2C)C3)c1 [Example 29, 7-[(3,5-dimethyl-1H-pyrazol-4-yl)sulfonyl]-4-morpholino-N-[(E)-m-tolylmethyleneamino]-6,8-dihydro-5H-pyrido[3,4-d]pyrimidin-2-amine] | 5 to 10 nM
21 | Cc1cccc(/C=N/Nc2nc3c(c(N4CCOCC4)n2)CN(S(=O)(=O)c2c(C)n[nH]c2C)C3)c1 [Example 20, 6-[(3,5-dimethyl-1H-pyrazol-4-yl)sulfonyl]-4-morpholino-N-[(E)-m-tolylmethyleneamino]-5,7-dihydropyrrolo[3,4-d]pyrimidin-2-amine] | ≤ 1 nM
22 | Cc1cccc(-c2cc(O)n(-c3nc4c(c(N5CCOCC5)n3)CN(C(=O)Nc3cccnc3)C4)n2)c1 [Example 38, 2-[5-hydroxy-3-(m-tolyl)pyrazol-1-yl]-4-morpholino-N-(3-pyridyl)-5,7-dihydropyrrolo[3,4-d]pyrimidine-6-carboxamide methane sulfonate] | 5 to 10 nM
23 | Cc1cccc(/C=N/Nc2nc3c(c(N4CCOCC4)n2)CN(C(=O)Nc2cccnc2)C3)c1 [Example 3, 4-Morpholino-2-[(2E)-2-(m-tolylmethylene)hydrazino]-N-(3-pyridyl)-5,7-dihydropyrrolo[3,4-d]pyrimidine-6-carboxamide] | 1 to 5 nM
24 | Cc1cccc(/C=N/Nc2nc3c(c(N4CCOCC4)n2)CN(C(=O)NC2CCCC2)C3)c1 [Example 4, N-cyclopentyl-4-morpholino-2-[(2E)-2-(m-tolylmethylene)hydrazino]-5,7-dihydropyrrolo[3,4-d]pyrimidine-6-carboxamide] | 1 to 5 nM
